Results as given in publication PMC12087653 (Autophagy, 2025).

Experiments:
LGG-1 = LGG-1 (Caenorhabditis elegans, UniProt Q09490); conditions: cited from earlier work
[1] = tested on: STX17-SNAP29-VAMP8 complex; conditions: in vitro fusion assay; cited from earlier work
GABARAP = conditions: full-length HsEPG5; cited from earlier work
HeLa cells = conditions: Rab7 colocalization; cited from earlier work
LC3/GABARAP proteins = conditions: cited from earlier work
His-LGG-1 = His-LGG-1 (C. elegans, UniProt Q09490 1-116); assay: ITC
Chain of His-LGG-1 (Q09490 1-116): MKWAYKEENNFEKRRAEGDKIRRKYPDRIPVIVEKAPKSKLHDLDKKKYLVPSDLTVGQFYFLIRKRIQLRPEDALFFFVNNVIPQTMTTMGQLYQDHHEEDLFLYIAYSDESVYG

Chain of LGG-1 (Q09490 whole entry, the tested form may be a part): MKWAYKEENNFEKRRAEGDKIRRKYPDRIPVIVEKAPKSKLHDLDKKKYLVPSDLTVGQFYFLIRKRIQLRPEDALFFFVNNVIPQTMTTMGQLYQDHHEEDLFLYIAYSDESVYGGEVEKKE

## CeEPG5: C. elegans EPG-5, recombinant
LGG-1
  binding to LGG-1: binds the C. elegans Atg8 protein LGG-1 via its tandem LIR

## HsEPG5: human EPG5 (ectopic P-granules 5 autophagy tethering factor; ~290 kDa)
[1]
  effect on STX17-SNAP29-VAMP8 complex formation: modestly enhances the formation of the STX17-SNAP29-VAMP8 complex
GABARAP
  Atg8 subfamily preference of HsEPG5: preferentially binds members of the GABARAP subfamily
HeLa cells
  formation of puncta / localization in cells: could form small puncta that colocalize with lysosomal surface-residing Rab7 in HeLa cells
LC3/GABARAP proteins
  dependence of peri-nuclear localization on LC3/GABARAP proteins: HsEPG5 localization to the peri-nuclear region is independent of LC3/GABARAP proteins

B1: CeEPG5 LIR1 peptide (505STWEILADDDD515) (peptide)
peptide: STWEILADDDD
His-LGG-1
  Kd: 1.46 µM

B2: CeEPG5 LIR2 peptide (516GEANEFSFVTINE528) (peptide)
peptide: GEANEFSFVTINE
His-LGG-1
  Kd: 10.4 µM
